ChEMBL document CHEMBL4507291 (2021)

Key:
[1] = tested on: Tyrosine-protein kinase ABL1 (Homo sapiens), P00519 [T315I]
[2] = molecular target: STE20-like serine/threonine-protein kinase (Homo sapiens) (UniProt Q9H2G2)
[3] = molecular target: Tyrosine-protein kinase Fyn (Homo sapiens) (UniProt P06241)
[4] = molecular target: Serine/threonine-protein kinase WNK2 (Homo sapiens) (UniProt Q9Y3S1)
[5] = molecular target: Phosphatidylinositol 3-kinase catalytic subunit type 3 (Homo sapiens) (UniProt Q8NEB9)
Phosphatidylinositol 3-kinase catalytic subunit type 3 (Homo sapiens), sequence (Q8NEB9 whole entry): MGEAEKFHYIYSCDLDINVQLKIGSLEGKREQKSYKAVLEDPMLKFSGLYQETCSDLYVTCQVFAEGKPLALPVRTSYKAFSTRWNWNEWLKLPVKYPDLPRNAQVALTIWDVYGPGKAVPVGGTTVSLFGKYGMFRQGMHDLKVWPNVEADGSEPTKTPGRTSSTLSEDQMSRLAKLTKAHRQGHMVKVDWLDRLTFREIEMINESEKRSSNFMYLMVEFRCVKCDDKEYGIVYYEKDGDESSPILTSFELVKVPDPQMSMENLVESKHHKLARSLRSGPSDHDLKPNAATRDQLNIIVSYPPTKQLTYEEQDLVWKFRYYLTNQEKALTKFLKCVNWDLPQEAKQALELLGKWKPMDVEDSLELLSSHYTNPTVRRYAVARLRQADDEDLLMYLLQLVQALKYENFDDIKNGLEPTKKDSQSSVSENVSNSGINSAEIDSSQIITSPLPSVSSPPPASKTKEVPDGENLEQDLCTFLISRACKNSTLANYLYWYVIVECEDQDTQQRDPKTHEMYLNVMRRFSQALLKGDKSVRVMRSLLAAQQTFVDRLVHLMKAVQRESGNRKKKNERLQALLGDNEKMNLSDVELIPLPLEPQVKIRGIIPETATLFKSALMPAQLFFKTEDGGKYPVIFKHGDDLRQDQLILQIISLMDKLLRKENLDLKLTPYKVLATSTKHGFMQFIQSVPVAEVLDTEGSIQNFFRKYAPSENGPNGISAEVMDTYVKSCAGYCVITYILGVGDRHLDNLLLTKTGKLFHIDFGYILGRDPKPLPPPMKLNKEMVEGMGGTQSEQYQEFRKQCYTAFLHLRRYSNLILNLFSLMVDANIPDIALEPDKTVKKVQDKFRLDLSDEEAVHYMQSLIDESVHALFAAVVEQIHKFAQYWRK

[6] = tested on: Tyrosine-protein kinase ABL1 (Homo sapiens), P00519 [F317I]
[7] = molecular target: T1, Serine/threonine-protein kinase TBK1 (Homo sapiens) (UniProt Q9UHD2)
T1 sequence (whole entry): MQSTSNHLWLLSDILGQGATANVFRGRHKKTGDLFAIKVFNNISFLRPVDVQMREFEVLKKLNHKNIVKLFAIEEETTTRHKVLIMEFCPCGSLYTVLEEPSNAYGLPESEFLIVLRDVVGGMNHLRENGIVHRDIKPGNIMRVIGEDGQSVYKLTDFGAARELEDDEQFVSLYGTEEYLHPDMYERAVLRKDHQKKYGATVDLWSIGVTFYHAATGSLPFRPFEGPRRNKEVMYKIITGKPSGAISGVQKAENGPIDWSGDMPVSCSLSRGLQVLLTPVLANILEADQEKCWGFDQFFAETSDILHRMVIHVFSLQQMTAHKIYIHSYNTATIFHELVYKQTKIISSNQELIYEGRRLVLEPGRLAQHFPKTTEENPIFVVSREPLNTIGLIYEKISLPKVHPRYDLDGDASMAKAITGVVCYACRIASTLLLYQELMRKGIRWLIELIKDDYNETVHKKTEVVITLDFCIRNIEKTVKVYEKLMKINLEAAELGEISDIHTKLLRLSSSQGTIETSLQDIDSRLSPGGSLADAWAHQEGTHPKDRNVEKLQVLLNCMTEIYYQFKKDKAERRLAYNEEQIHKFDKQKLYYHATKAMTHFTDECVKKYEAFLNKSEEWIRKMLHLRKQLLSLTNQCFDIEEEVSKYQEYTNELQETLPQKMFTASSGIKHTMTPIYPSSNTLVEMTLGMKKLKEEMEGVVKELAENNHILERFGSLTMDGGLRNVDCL

[8] = molecular target: Mitogen-activated protein kinase kinase kinase 6 (Homo sapiens) (UniProt O95382)
Mitogen-activated protein kinase kinase kinase 6 (Homo sapiens), sequence (O95382 whole entry): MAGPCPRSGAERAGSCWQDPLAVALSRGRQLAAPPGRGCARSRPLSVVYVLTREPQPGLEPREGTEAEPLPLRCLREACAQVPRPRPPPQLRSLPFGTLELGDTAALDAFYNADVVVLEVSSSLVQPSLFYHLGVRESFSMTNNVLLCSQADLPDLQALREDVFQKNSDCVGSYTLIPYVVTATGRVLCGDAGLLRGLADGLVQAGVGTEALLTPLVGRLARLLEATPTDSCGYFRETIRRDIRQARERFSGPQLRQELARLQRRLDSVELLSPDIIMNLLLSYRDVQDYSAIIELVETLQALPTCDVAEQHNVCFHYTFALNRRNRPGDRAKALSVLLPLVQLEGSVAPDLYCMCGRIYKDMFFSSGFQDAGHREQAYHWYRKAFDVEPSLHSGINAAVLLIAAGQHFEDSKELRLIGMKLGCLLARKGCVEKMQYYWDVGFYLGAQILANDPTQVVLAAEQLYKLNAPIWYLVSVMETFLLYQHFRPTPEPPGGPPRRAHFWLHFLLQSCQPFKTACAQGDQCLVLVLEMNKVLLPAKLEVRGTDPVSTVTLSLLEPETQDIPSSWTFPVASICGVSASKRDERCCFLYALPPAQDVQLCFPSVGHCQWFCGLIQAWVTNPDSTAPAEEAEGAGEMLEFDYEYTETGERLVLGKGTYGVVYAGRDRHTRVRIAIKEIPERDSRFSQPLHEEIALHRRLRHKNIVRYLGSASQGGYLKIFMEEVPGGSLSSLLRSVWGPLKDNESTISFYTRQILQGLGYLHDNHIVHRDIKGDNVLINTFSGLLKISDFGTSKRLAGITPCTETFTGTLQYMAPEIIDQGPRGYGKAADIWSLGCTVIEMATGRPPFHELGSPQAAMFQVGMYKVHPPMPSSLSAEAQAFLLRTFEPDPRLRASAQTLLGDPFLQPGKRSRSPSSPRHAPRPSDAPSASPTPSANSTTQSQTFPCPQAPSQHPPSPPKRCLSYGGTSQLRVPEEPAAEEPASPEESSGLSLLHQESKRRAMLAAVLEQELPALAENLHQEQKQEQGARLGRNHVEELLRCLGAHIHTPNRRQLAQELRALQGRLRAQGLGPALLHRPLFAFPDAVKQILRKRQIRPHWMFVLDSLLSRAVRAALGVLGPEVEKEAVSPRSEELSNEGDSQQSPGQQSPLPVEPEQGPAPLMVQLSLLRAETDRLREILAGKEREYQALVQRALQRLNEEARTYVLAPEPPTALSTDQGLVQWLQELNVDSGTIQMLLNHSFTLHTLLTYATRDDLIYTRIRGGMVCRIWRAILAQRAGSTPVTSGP

[9] = molecular target: Mitogen-activated protein kinase kinase kinase 9 (Homo sapiens) (UniProt P80192)
[10] = molecular target: Receptor tyrosine-protein kinase erbB-2 (Homo sapiens) (UniProt P04626)
Receptor tyrosine-protein kinase erbB-2 (Homo sapiens), sequence (P04626 whole entry): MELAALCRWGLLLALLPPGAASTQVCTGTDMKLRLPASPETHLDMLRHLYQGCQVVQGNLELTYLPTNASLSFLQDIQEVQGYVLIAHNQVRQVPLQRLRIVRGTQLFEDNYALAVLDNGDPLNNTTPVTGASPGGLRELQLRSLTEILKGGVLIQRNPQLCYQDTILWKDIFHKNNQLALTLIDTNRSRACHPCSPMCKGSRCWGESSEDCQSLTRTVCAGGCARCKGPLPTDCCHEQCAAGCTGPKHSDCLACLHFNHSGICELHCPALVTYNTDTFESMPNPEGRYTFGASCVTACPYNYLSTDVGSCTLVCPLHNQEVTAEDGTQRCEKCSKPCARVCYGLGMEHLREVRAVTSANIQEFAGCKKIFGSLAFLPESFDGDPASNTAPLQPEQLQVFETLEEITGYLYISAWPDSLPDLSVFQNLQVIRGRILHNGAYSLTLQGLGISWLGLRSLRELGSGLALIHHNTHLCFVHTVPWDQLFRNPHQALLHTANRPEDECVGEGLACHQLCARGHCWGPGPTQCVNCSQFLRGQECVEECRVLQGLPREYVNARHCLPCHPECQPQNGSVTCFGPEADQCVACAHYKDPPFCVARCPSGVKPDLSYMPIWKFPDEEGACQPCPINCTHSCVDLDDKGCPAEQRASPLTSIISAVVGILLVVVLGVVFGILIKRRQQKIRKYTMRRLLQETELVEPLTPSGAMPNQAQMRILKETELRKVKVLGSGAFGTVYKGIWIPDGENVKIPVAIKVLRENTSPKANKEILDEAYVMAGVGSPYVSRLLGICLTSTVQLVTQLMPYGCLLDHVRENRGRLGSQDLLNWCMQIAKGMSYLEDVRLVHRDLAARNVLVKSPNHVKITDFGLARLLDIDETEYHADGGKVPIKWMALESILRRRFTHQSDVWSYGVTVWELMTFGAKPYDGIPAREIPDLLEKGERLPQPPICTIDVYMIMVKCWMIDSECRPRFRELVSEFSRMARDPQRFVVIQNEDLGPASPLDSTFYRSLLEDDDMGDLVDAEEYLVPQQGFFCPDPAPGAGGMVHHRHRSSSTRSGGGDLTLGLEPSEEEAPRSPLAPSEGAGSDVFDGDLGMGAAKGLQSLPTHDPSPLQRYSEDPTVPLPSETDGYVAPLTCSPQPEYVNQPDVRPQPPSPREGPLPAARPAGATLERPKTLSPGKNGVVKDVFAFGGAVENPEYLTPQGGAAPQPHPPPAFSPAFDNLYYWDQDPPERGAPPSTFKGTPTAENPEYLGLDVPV

[11] = molecular target: Proto-oncogene tyrosine-protein kinase receptor Ret (Homo sapiens) (UniProt P07949)
[12] = molecular target: T2, Serine/threonine-protein kinase Sgk3 (Homo sapiens) (UniProt Q96BR1)
T2 sequence (whole entry): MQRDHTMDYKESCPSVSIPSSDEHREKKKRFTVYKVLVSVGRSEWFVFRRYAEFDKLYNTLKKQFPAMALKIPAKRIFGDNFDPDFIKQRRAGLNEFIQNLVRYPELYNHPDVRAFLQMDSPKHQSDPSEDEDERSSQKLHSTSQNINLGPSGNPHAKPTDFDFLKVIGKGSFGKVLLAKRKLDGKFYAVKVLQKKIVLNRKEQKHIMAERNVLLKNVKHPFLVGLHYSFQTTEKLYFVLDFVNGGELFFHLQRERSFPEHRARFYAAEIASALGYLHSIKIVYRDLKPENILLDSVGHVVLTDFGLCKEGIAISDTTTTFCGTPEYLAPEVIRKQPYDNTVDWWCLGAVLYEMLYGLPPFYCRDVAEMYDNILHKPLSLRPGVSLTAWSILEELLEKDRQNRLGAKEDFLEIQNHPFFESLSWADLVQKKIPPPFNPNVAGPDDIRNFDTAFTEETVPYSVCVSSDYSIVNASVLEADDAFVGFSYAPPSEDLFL

[13] = molecular target: T3, Serine/threonine-protein kinase D2 (Homo sapiens) (UniProt Q9BZL6)
T3 sequence (whole entry): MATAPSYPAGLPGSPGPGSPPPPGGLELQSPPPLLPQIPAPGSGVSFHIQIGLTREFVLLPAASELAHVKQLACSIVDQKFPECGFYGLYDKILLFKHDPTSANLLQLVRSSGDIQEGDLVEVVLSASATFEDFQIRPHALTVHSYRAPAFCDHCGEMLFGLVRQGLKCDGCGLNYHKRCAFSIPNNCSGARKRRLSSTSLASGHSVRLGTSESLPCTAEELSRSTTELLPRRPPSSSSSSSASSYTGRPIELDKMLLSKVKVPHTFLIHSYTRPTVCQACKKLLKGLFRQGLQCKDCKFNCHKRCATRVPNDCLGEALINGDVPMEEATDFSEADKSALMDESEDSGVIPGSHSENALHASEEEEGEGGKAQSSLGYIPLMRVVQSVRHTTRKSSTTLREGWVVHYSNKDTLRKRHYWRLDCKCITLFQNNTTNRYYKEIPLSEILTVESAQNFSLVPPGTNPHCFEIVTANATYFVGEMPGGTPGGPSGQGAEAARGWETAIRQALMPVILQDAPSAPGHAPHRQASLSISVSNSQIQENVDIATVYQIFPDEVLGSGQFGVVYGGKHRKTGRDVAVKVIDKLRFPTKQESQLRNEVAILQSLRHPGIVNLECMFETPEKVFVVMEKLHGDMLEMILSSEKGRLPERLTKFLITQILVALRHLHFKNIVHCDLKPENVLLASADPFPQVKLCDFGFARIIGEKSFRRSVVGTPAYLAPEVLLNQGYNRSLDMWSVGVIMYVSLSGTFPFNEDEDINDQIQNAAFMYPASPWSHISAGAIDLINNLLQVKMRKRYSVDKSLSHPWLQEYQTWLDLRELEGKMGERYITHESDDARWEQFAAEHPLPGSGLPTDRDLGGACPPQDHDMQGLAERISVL

[14] = tested on: Serine/threonine-protein kinase B-raf (Homo sapiens), P15056 [V600E]
[15] = molecular target: Cyclin-dependent kinase 3 (Homo sapiens) (UniProt Q00526)
Cyclin-dependent kinase 3 (Homo sapiens), sequence (Q00526 whole entry, looked up): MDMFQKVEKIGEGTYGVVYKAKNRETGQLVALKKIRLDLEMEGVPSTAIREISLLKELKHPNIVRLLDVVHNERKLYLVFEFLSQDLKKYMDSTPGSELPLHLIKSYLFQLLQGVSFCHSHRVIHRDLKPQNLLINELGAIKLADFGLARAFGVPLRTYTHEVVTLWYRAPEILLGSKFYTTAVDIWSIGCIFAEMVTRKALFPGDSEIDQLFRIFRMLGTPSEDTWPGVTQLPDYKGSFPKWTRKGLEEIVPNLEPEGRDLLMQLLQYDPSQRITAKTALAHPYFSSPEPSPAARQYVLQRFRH

[16] = tested on: Tyrosine-protein kinase ABL1 (Homo sapiens), P00519 [T315I]; remark: listed apart in the source
[17] = Compound concentration 1000.0 nM
[18] = Compound concentration 100.0 nM

Measured: residual activity

STE20-like serine/threonine-protein kinase (Homo sapiens), sequence (Q9H2G2 whole entry, looked up): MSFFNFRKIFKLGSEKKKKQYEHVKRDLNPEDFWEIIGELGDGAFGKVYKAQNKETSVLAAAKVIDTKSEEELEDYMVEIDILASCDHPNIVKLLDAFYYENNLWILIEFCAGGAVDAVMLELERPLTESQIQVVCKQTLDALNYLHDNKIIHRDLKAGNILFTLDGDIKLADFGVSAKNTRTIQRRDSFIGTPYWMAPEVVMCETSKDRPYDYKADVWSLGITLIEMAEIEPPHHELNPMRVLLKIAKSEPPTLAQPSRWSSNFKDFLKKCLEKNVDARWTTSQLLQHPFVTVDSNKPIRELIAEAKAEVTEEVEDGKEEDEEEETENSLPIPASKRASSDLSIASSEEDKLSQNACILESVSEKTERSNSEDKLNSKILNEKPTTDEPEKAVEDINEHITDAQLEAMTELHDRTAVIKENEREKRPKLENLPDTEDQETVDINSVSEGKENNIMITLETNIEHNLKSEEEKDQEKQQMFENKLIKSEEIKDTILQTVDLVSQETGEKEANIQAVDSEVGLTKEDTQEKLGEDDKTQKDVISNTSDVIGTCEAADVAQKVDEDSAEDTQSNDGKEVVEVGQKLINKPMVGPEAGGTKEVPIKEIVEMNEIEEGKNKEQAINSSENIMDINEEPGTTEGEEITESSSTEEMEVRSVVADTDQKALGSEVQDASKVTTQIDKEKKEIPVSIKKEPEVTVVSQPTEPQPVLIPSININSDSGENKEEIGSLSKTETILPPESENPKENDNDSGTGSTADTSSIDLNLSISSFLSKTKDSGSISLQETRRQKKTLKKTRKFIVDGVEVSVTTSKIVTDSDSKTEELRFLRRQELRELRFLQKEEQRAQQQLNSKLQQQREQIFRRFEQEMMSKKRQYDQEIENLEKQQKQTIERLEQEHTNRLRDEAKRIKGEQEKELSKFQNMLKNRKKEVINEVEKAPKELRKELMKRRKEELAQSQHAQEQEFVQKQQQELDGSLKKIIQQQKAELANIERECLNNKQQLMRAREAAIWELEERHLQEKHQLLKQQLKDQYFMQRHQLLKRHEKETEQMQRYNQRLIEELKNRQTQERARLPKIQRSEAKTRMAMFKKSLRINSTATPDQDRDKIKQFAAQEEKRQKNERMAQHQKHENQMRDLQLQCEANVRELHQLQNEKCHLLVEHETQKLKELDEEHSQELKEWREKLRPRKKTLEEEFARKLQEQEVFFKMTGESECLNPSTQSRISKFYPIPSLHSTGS

C[C@@H]1CN(c2cc(-c3nn(C)c4ccc(OC5(C)CC5)cc34)ncn2)C[C@H](C)O1 [MLi-2-NC]
inactive: [1]; [17] 73% | [2]; [17] 100% | [3]; [17] 98% | [4]; [17] 63% | [5]; [17] 86% | [6]; [17] 75% | [7]; [17] 75% | [8]; [17] 76% | [9]; [17] 100% | [10]; [17] 80% | [11]; [17] 96% | [12]; [17] 67% | [13]; [17] 90% | [14]; [17] 91% | [15]; [17] 98% | [16]; [17] 74%

C[C@@H]1CN(c2cc(-c3n[nH]c4ccc(OC5(C)CC5)cc34)ncn2)C[C@H](C)O1 [MLi-2]
inactive: [1]; [18] 72% | [2]; [18] 98% | [3]; [18] 100% | [4]; [18] 84% | [5]; [18] 100% | [6]; [18] 80% | [7]; [18] 68% | [8]; [18] 59% | [9]; [18] 100% | [10]; [18] 77% | [11]; [18] 100% | [12]; [18] 84% | [13]; [18] 100% | [14]; [18] 89% | [15]; [18] 76% | [16]; [18] 86%
